Source: BindingDB's records for doi:10.1021/jm00051a003 (University of Washington, 1995)

assay: Tested for the binding affinity against the Delta opioid receptor in guinea pig brain using [3H]DPDPE

SMILES	IC50 [nM]
Oc1ccc2c3c1OC1[C@@H](OCc4ccc5ccccc5c4)CCC4(O)C(C2)N(CC2CC2)CCC314 (stereo not given in full)	20
Oc1ccc2c3c1OC1[C@H](OCc4ccc5ccccc5c4)CCC4(O)C(C2)N(CC2CC2)CCC314 (stereo not given in full)	25
Oc1ccc2c3c1OC1[C@@H](OCc4cccc5ccccc45)CCC4(O)C(C2)N(CC2CC2)CCC314 (stereo not given in full)	6.6
Oc1ccc2c3c1OC1[C@@H](OCc4ccc(-c5ccccc5)cc4)CCC4(O)C(C2)N(CC2CC2)CCC314 (stereo not given in full)	19
Oc1ccc2c3c1OC1[C@@H](OCc4ccccc4)CCC4(O)C(C2)N(CC2CC2)CCC314 (stereo not given in full)	1.4
Oc1ccc2c3c1OC1[C@H](OCc4cccc5ccccc45)CCC4(O)C(C2)N(CC2CC2)CCC314 (stereo not given in full)	5.5
Oc1ccc2c3c1OC1[C@@H](OCc4c5ccccc5cc5ccccc45)CCC4(O)C(C2)N(CC2CC2)CCC314 (stereo not given in full)	36
Oc1ccc2c3c1OC1[C@H](OCc4ccc(-c5ccccc5)cc4)CCC4(O)C(C2)N(CC2CC2)CCC314 (stereo not given in full)	11
Oc1ccc2c3c1OC1[C@H](OCc4c5ccccc5cc5ccccc45)CCC4(O)C(C2)N(CC2CC2)CCC314 (stereo not given in full)	48
O=C(COC1CCC2(O)C3Cc4ccc(O)c5c4C2(CCN3CC2CC2)C1O5)C1[C@H]2C[C@@H]3C[C@@H](C[C@H]1C3)C2 (stereo partly drawn) [17-(cyclopropylmethyl)-4,5alpha-epoxy-3,14-dihydroxy-6beta-morphinanyl 2-adamantyl-2-oxoethylether]	30
